The source of these data is PubChem BioAssay AID686998 (Broad Institute, 2013).

For orientation: IC50 means the point on the concentration scale where inhibition reaches its midpoint.

“And” between values parts separate entries of the source, which are not always exact repeats. Equal values may be shown once. Results filed as inconclusive are left out. The source made the active and inactive calls.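 The calls were made as follows: active = falling signal with fitted half-maximal potency no higher than twice the top valid tested dose; inconclusive = poor fit quality, or flat fit spanning -70% to -30%; inactive = potency over limit, rising signal, or flat fit inside 30%.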 Some results are limits rather than exact numbers.

This assay relates to Cryptococcus neoformans growth, Alamar Blue, 24 h. The assay is described as follows: Cryptococcus neoformans growth inhibition, dose response, Alamar Blue, cherry-picks (AID 686998). (The colour change of resazurin is a common sign of viable cells or microbes.)
As to `Cc1ccccc1-n1ncc2c(SCC(=O)N3c4ccccc4CC3C)ncnc21` (centres undefined), the IC50 was 0.28 µM.
For `C[C@@H]1CN([C@H](C)CO)S(=O)(=O)c2ccc(-c3ccccc3)cc2O[C@H]1CN(C)C(=O)C1CCCCC1`, the IC50 was 65.5 µM.
In the case of `O=C(c1cccc(F)c1)N1C[C@H]2[C@@H](c3ccccc31)[C@@H](CO)N2Cc1cocn1`, the IC50 is > 70 µM (inactive).
To `COC(=O)C1=C(C)N(Cc2ccc(Cl)cc2)C(=S)NC1c1cccc(Cl)c1` (centres undefined) belongs 15.1 µM.
On to `CC=Cc1ccc2n(c1=O)C[C@@H]1[C@@H](CO)[C@H](C(=O)NCc3ccc4c(c3)OCO4)[C@H]2N1C(=O)C1CC1` (mixture of isomers), for which the IC50 was 23.3 µM.
`Cc1cc(C)c(NC(=O)CN(C2CCCCC2)C2CCCCC2)c(C)c1`: the IC50 was 32.9 µM.
As to `O=C(c1cccnc1)N1C[C@H]2[C@@H](c3ccccc31)[C@@H](CO)N2C(=O)Nc1ccc(F)cc1`, the IC50 was 6.72 µM.
For `Cc1cc(C)c2nc(N3CCN(C(=O)c4cccs4)CC3)sc2c1`, the IC50 is 21.9 µM.
Regarding `O=C(C[C@H]1CC[C@H]2[C@@H](COC[C@H](O)CN2Cc2cc(F)cc(F)c2)O1)Nc1nccs1`, the IC50 is > 70 µM (inactive).
The figure for `C[C@H](CO)N1C[C@H](C)[C@H](CN(C)S(=O)(=O)c2cn(C)cn2)Oc2ncc(/C=C/c3ccccc3)cc2C1=O` is 60.1 µM; for `CO[C@@H]1CN(C)C(=O)c2cc(NC(=O)C3CCOCC3)ccc2OC[C@H](C)NC[C@@H]1C` it is 67.4 µM.
With `CC(NC(=O)COc1ccccc1-c1ccccc1)c1ccccc1` (centres undefined), the IC50 is 2.53 µM.
Turning to `COc1ccc(CNC(=S)NCc2ccc(OC(C)C)cc2)cc1`, the IC50 was 30.4 µM.
With `CN1C[C@@H]2C(c3ccc(C(F)(F)F)cc3)C3(c4ccccc4)CC2(C3)[C@H]1c1ccccc1` (some centres undefined), the 50% inhibitory concentration (IC50) is 11.2 µM.
With `Cc1cccc(-c2ccc([C@@H]3[C@@H](CO)N4CCCCN(S(=O)(=O)c5ccccc5C)C[C@@H]34)cc2)c1`, the IC50 is 2.62 µM.
The figure for `C[C@@H]1CN([C@H](C)CO)C(=O)c2cccc(NC(=O)c3ccncc3)c2O[C@H]1CN(C)C(=O)Nc1ccc(C(F)(F)F)cc1` is 67.4 µM; for `CCCC(=O)N1CCC1(C)C(=O)Nc1cc(C)ccc1C` (centres undefined) it is > 70 µM (inactive); for `C[C@H](CO)N1C[C@H](C)[C@H](CN(C)CC2CCCCC2)Oc2c(NS(C)(=O)=O)cccc2C1=O` it is 56.4 µM.
The figure for `CCC(=O)N(C)C[C@@H]1Oc2cc(C#CC(C)(C)O)ccc2S(=O)(=O)N([C@@H](C)CO)C[C@H]1C` is 28.7 µM; for `O=C(CN1CCOCC1)N[C@@H]1CC[C@@H](CCNC(=O)C2CCC2)O[C@@H]1CO` it is 43.7 µM.
As to `C[C@@H]1CN([C@@H](C)CO)C(=O)c2cc(-c3cncnc3)cnc2O[C@H]1CN(C)C(=O)CN1CCOCC1`, the half-inhibitory concentration (IC50) is 42.4 µM.
As to `COC(=O)C1=C(C)N(Cc2ccc(F)cc2)C(=S)NC1c1cccc(OC)c1` (centres undefined), the IC50 was 31 µM.
Take `CCC(=O)N1[C@H](CN(C)C(C)=O)[C@@H](c2ccc(C3=CCCCC3)cc2)[C@@H]1CO`: the IC50 was 40.4 µM.
As to `C[C@@H]1CN([C@H](C)CO)C(=O)c2ccccc2-c2ccccc2CO[C@H]1CN(C)S(=O)(=O)c1cccc(C#N)c1`, the IC50 was 66.7 µM.
The figure for `COc1ccc(CN(C)C[C@@H]2Oc3ccc(NS(C)(=O)=O)cc3CC(=O)N([C@H](C)CO)C[C@H]2C)cc1` is 48.6 µM.
On to `CC(C)NC(=O)Nc1ccc2c(c1)CC(=O)N([C@H](C)CO)C[C@H](C)[C@@H](CN(C)C(=O)Nc1ccc3c(c1)OCO3)O2`, for which the IC50 was > 70 µM (inactive).
To `CC(C)CC#Cc1cnc2c(c1)C(=O)N([C@@H](C)CO)C[C@@H](C)[C@@H](CN(C)C(=O)c1cccc(F)c1)O2` belongs 45.8 µM.
On to `COc1ccc(CN(C)C[C@H]2Oc3ccc(NS(C)(=O)=O)cc3CC(=O)N([C@@H](C)CO)C[C@H]2C)cc1`, for which the IC50 is 39.9 µM.
With `COc1ccc(NC(=S)NCc2ccccc2Cl)c(OC)c1`, the half-inhibitory concentration (IC50) was 43.4 µM.
Turning to `COc1cccc(C(=O)NC(=S)Nc2ccccc2N2CCOCC2)c1`, the IC50 is 21.2 µM.
As to `Cc1cccc(NC(=S)NN(Cc2ccccc2)c2ccccc2)c1C`, the IC50 was 11.9 µM.
To `Cc1ccc2c(C)c(C(=O)N3CCN(Cc4ccccn4)CC3)oc2c1C` belongs 67.4 µM; to `CC(C)COc1ccc(CNC(=S)NCc2ccccc2)cc1`, 5.43 µM.
Turning to `O=C(NC(=S)Nc1cc(Cl)ccc1N1CCOCC1)c1ccccc1[N+](=O)[O-]`, the IC50 is 7.86 µM.
As for `C[C@H](CO)N1C[C@H](C)[C@@H](CN(C)S(=O)(=O)c2cn(C)cn2)Oc2c(NC(=O)Nc3ccccc3)cccc2C1=O`, the IC50 is > 70 µM (inactive).
Regarding `COC(=O)C1=C(C)N(CC(C)C)C(=S)NC1c1ccc(F)cc1` (centres undefined), the IC50 is 20.3 µM.
Take `COC(=O)C1=C(C)N(CC(C)C)C(=S)NC1c1ccc(Cl)cc1` (centres undefined): the IC50 was 9 µM and 18 µM.
The figure for `COC(=O)C1=C(C)N(Cc2ccc(Cl)cc2)C(=S)NC1c1ccc(OC)cc1` (centres undefined) is 22.6 µM.
To `CC(=O)OC1(C)CC(C)C(=O)C(C(O)CC2CC(=O)NC(=O)C2)C1` (centres undefined) belongs less than 0.26 µM; to `COc1cccc(NC(=S)N2CCC(Cc3ccccc3)CC2)c1`, 8.22 µM.
In the case of `O=C(CSc1ncnc2c1cnn2-c1cccc(Cl)c1)NCC1CCCO1` (centres undefined), the IC50 is 39.1 µM.
For `O=C(C1CCOCC1)N1C[C@H]2[C@@H](c3ccccc31)[C@@H](CO)N2Cc1ccccc1Cl`, the IC50 is 1.88 µM.
In the case of `COC(=O)C1=C(C)N(Cc2ccc(Br)cc2)C(=S)NC1c1ccc(F)cc1` (centres undefined), the IC50 was 5.35 µM.
Regarding `COc1ccc(NC(=O)c2cn(C)c(=O)c3cc(OC)c(OC)cc23)c(OC)c1`, the IC50 was > 70 µM (inactive).
To `CNC[C@H]1Oc2cc(Br)ccc2S(=O)(=O)N([C@H](C)CO)C[C@H]1C` belongs > 70 µM (inactive); to `O=C(NC(=S)Nc1ccccc1N1CCCC1)c1ccccc1[N+](=O)[O-]`, 1.42 µM.
`S=C(NCCc1cccc(Cl)c1)NC1CCCCC1`: the IC50 was 6.69 µM.
Consider `C[C@H]1CN([C@@H](C)CO)C(=O)Cc2cc(NC(=O)C3CC3)ccc2O[C@@H]1CN(C)C(=O)Nc1cccc2ccccc12`, for which the IC50 is 53.6 µM.
Turning to `C[C@@H]1CN([C@H](C)CO)C(=O)c2cc(NS(=O)(=O)c3cn(C)cn3)ccc2O[C@@H](C)CCCCO[C@H]1CN(C)C`, the IC50 is 62.9 µM.
The figure for `COc1ccc(CN(C)C[C@@H]2OCCCC[C@@H](C)Oc3ccc(NC(=O)c4ccccc4)cc3C(=O)N([C@H](C)CO)C[C@@H]2C)cc1` is > 70 µM (inactive).
Turning to `Cc1ccc(S(=O)(=O)N2CC[C@@H]3[C@H]2c2cc(-c4ccccc4F)ccc2N[C@@H]3CO)cc1`, the IC50 was 6.14 µM.
To `CCc1nc(N2CCCCC2C)c2oc3ccccc3c2n1` (centres undefined) belongs 17.6 µM; to `CC(C)CC#Cc1ccc2c(c1)O[C@H](CN(C)C(=O)C1CCC1)[C@@H](C)CN([C@@H](C)CO)S2(=O)=O`, 43.5 µM; to `O=C1CCC(C(=O)Nc2ccc([N+](=O)[O-])cc2)N1` (centres undefined), 10.1 µM.
For `C[C@H](NC(=O)C[C@H]1CC[C@@H](NC(=O)Cc2ccccn2)[C@@H](CO)O1)c1ccccc1`, the IC50 was 47.2 µM.
On to `CCC(=O)Nc1ccc2c(c1)C(=O)N(C)C[C@H](OC)[C@@H](C)CN[C@H](C)CO2`, for which the IC50 was > 70 µM (inactive).
As to `O=C(C1CCOCC1)N1CC[C@@H]2[C@@H](CO)Nc3ccc(Br)cc3[C@@H]21`, the IC50 was > 70 µM (inactive).
For `CNC[C@@H]1OCCCC[C@@H](C)Oc2ccc(NC(=O)NC(C)C)cc2C(=O)N([C@@H](C)CO)C[C@H]1C`, the IC50 is > 70 µM (inactive).
The figure for `O=C(c1cccs1)N1CCN(c2nc3ccccc3s2)CC1` is > 70 µM (inactive).
